According to patent publication US9233978B2, “6-fused heteroaryldihydropyrimidines for the treatment and prophylaxis of hepatitis B virus infection” (Hoffmann-La Roche Inc., priority 2014, dated 2016):
≈ marks a conversion by molar mass, not a printed value. Like-named read-outs stand apart in the source and are kept apart here.

What was measured:
[1] = system: HepDE19 cells; experiment: Cytotoxicity in HepDE19 cells (CCK-8) and selectivity index; format: cell-based; conditions: for Selectivity index (CC50/EC50): CC50 (HepDE19) value / EC50 (HepG2.2.15) value; for CC50: HepDE19 cells, CCK-8 cell viability, five days after treatment
Excerpt: (§1) HepG2.2.15 and HepDE19 are stably-transfected cell lines containing the HBV genome. Both cell lines are derived from the hepatoblastoma cell line Hep G2 (American Type Culture Collection, ATCC® HB-8065™) by the published procedures described in references: MA Selles et al. Proc. Natl. Acad. Sci. USA 1987, 84, 1005-1009 and H Guo et al. Journal of Virology 2007, 81, 12472-12484, respectively. Both cell lines were maintained in Dulbecco's modified Eagle's medium (DMEM)-F12 medium supplemented with 10% fetal bovine serum, 100 U/mL penicillin, 100 μg/mL streptomycin, and 0.5 mg/mL of G418.
(§2) HepDE19 cells were seeded into 96-well plates (5×10^3 cells per well) and treated with compounds for EC50 determination. Five days after treatment, cell viability was measured by addition of 20 μL of CCK-8 reagent. Two hours after incubation at 37° C., the absorbance at wavelengths of 450 nm and 630 nm (OD450 and OD630) was recorded by a plate reader. The concentration results in the death of 50% of the host cells (CC50) of each compound were determined.
(§3) The relative effectiveness of the compound in inhibiting viral replication compared to inducing cell death was defined as the selectivity index (CC50 value/EC50 value). Based on CC50 and EC50 data, selectivity indexes were determined.

[2] = as above; format: cell-based; conditions: human, HepDE19 cells; CCK-8 cell viability; five days after treatment
Excerpt: as §1, §2, §3

[3] = system: HBV; experiment: Anti-HBV activity in vitro, HepG2.2.15 cells, extracellular HBV DNA by qPCR; format: cell-based; conditions: HepG2.2.15 cells, HBV replication inhibited by 50%, extracellular HBV DNA by qPCR, five days after compound treatment, read-out: EC50
How it was run: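 Extracellular HBV DNA in culture supernatant was measured by qPCR after nucleic acid extraction. The supernatant came from constitutively replicating HepG2.2.15 cells exposed for five days to half-log-diluted compounds, with DMSO at 0.5% final. Cells had been plated overnight at 37 °C beforehand.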

[4] = Human microsomal metabolic stability; format: in vitro ADME; conditions: human microsomes 0.5 mg/mL, 1 μM test compound, NADPH, 37° C., pH 7.4, 0-30 minutes
Method: Human Microsomes (BD Gentest) were preincubated with test compound for 10 minutes at 37° C. in 100 mM phosphate buffer, pH 7.4. The reactions were initiated by adding NADPH or NADPH regenerating system to give a final incubation volume of 400 μL. For NADPH system, the final incubations contained 1 μM test compound, 0.5 mg/mL liver microsomal protein, 1 mM NADPH in 100 mM phosphate buffer, pH 7.4. For the NADPH regenerating system, the final incubations contained 1 μM test compound, 0.5 mg/mL liver microsomal protein, 3 mM glucose 6-phosphate, 1 mM NADP, 3 mM MgCl2 and 0.05 mg/mL glucose 6-phosphate dehydrogenase in 100 mM phosphate buffer, pH 7.4. After incubation times of 0, 3, 6, 9, 15 and 30 minutes at 37° C., 1 sample was obtained from each time point and 50 μL of each sample was removed and transferred to 150 μL of methanol solution which was maintained at 4° C. and contained 2 μM tolbutamide as internal standard. Following precipitation and centrifugation, the amount of compound remaining in the samples were determined by LC-MS/MS. Controls of no NADPH or no NADPH regenerating system at zero and 30 minutes were also prepared and analyzed.

[5] = Lysa solubility; format: physicochemical; conditions: 0.05 M phosphate buffer (pH 6.5); for solubility thermodynamic: phosphate buffer, pH 6.5, aqueous buffer, thermodynamic from solid
Method: Samples were prepared in duplicate from 10 mM DMSO stock solutions. After evaporation of DMSO with a centrifugal vacuum evaporator, the residue was solved in 0.05 M phosphate buffer (pH 6.5), stirred for one hour and shook for two hours. After one night, the solution was filtered using a microtiter filter plate. Then the filtrate and its 1/10 dilution were analyzed by direct UV measurement or by HPLC-UV. […] The results were in μg/mL. In case the percentage of sample measured in solution after evaporation divided by the calculated maximum of sample amount was over 80%, the solubility was reported as higher than this value.

[6] = Hepatitis B virus, HepG2.2.15, 120 h

| SMILES | Selectivity index (CC50/EC50) [1] | CC50 at 5 days [2] [nM] | EC50 [3, 6] [nM] | CC50 [1] [nM] | Human Microsomal Clearance [4] [mL/min/kg] | Lysa [5] [µg/mL] | EC50 [3] [nM] | solubility thermodynamic [5] [µg/mL] |
| --- | --- | --- | --- | --- | --- | --- | --- | --- |
| COC(=O)C1=C(CN2CCN3C(=O)NCC3(C(=O)OC)C2)NC(c2nccs2)=N[C@H]1c1ccc(F)cc1Cl (stereo partly drawn) [Example 89, Methyl 7-[[(4R)-4-(2-chloro-4-fluoro-phenyl)-5-methoxycarbonyl-2-thiazol-2-yl-1,4-dihydropyrimidin-6-yl]methyl]-3-oxo-2,5,6,8-tetrahydro-1H-imidazo[1,5-a]pyrazine-8a-carboxylate] | 10714 | 75000 | 7 |  |  |  |  |  |
| CCCOC(=O)C1=C(CN2CCN3C(=O)N(CC(C)(C)C(=O)O)C[C@@H]3C2)NC(c2nccs2)=N[C@H]1c1cccc(F)c1Cl [Example 93, 3-[(8aS)-7-[[(4R)-4-(2-chloro-3-fluoro-phenyl)-5-propoxycarbonyl-2-thiazol-2-yl-1,4-dihydropyrimidin-6-yl]methyl]-3-oxo-5,6,8,8a-tetrahydro-1H-imidazo[1,5-a]pyrazin-2-yl]-2,2-dimethyl-propanoic acid] | 7167 | 86000 | 12 |  |  |  |  |  |
| CCOC(=O)C1=C(CN2CCN3C(=O)N(CC(C)(C)C(=O)O)C[C@@H]3C2)NC(c2nc(C)cs2)=N[C@H]1c1cccc(F)c1Cl [Example 98, 3-[(8aS)-7-[[(4R)-4-(2-chloro-3-fluoro-phenyl)-5-ethoxycarbonyl-2-(4-methylthiazol-2-yl)-1,4-dihydropyrimidin-6-yl]methyl]-3-oxo-5,6,8,8a-tetrahydro-1H-imidazo[1,5-a]pyrazin-2-yl]-2,2-dimethyl-propanoic acid] | 6636 | 73000 | 11 |  |  |  |  |  |
| CCOC(=O)C1=C(CN2CCN3C(=O)N(C4CCC(C(=O)O)C4)C[C@@H]3C2)NC(c2nccs2)=N[C@H]1c1cccc(F)c1Cl (mixture of isomers) [Example 64, (R)-6-[(S)-2-((1R,3R)-3-Carboxy-cyclopentyl)-3-oxo-hexahydro-imidazo[1,5-a]pyrazin-7-ylmethyl]-4-(2-chloro-3-fluoro-phenyl)-2-thiazol-2-yl-1,4-dihydro-pyrimidine-5-carboxylic acid ethyl ester and (R)-6-[(S)-2-((1S,3S)-3-Carboxy-cyclopentyl)-3-oxo-hexahydro-imidazo[1,5-a]pyrazin-7-ylmethyl]-4-(2-chloro-3-fluoro-phenyl)-2-thiazol-2-yl-1,4-dihydro-pyrimidine-5-carboxylic acid ethyl ester] | 8375 |  |  | 67000 | 5.6 | >669 | 8 |  |
| CCOC(=O)C1=C(CN2CCN3C(=O)N(CCO)CC3C2)NC(c2nccs2)=N[C@H]1c1cccc(F)c1Cl (stereo partly drawn) [Example 70, Ethyl (4R)-4-(2-chloro-3-fluoro-phenyl)-6-[[2-(2-hydroxyethyl)-3-oxo-5,6,8,8a-tetrahydro-1H-imidazo[1,5-a]pyrazin-7-yl]methyl]-2-thiazol-2-yl-1,4-dihydropyrimidine-5-carboxylate] | 12600 | 63000 | 5 |  |  |  |  |  |
| COC(=O)C1=C(CN2CCN3C(=O)N(C4CCC(C(=O)O)C4)C[C@@H]3C2)NC(c2nccs2)=N[C@H]1c1ccc(F)cc1Cl (mixture of isomers) [Example 63, (R)-6-[(S)-2-((1R,3R)-3-Carboxy-cyclopentyl)-3-oxo-hexahydro-imidazo[1,5-a]pyrazin-7-ylmethyl]-4-(2-chloro-4-fluoro-phenyl)-2-thiazol-2-yl-1,4-dihydro-pyrimidine-5-carboxylic acid methyl ester and (R)-6-[(S)-2-((1S,3S)-3-Carboxy-cyclopentyl)-3-oxo-hexahydro-imidazo[1,5-a]pyrazin-7-ylmethyl]-4-(2-chloro-4-fluoro-phenyl)-2-thiazol-2-yl-1,4-dihydro-pyrimidine-5-carboxylic acid methyl ester] | 7583 |  |  | 91000 | 5.3 | >751 | 12 |  |
| CCOC(=O)C1=C(CN2CCN3C(=O)N(C(C)C)C[C@@H]3C2)NC(c2nccs2)=N[C@H]1c1cccc(F)c1Cl (single isomer, unassigned) [Example 104B] | >6750 | 27000 | 4 |  |  |  |  |  |
| CCOC(=O)C1=C(CN2CCN3C(=O)N(CC(C)(C)O)C[C@@H]3C2)NC(c2nccs2)=N[C@H]1c1cccc(F)c1Cl (single isomer, unassigned) [Example 106B] | 21666 | 65000 | 3 |  |  |  |  |  |
| COC(=O)C1=C(CN2CCN3C(=O)N(C4CCC(C(=O)O)CC4)C[C@@H]3C2)NC(c2nccs2)=N[C@H]1c1ccc(F)cc1Cl (stereo partly drawn) [Example 72, 4-[(8aS)-7-[[(4R)-4-(2-chloro-4-fluoro-phenyl)-5-methoxycarbonyl-2-thiazol-2-yl-1,4-dihydropyrimidin-6-yl]methyl]-3-oxo-5,6,8,8a-tetrahydro-1H-imidazo[1,5-a]pyrazin-2-yl]cyclohexanecarboxylic acid] |  |  | 9 |  | 5.2 |  |  | 551 (≈ 873 µM) |
| CCOC(=O)C1=C(CN2CCN3C(=O)N(c4ccccc4C(=O)O)C[C@@H]3C2)NC(c2nccs2)=N[C@H]1c1cccc(F)c1Cl [Example 28, (R)-6-[(S)-2-(2-Carboxy-phenyl)-3-oxo-hexahydro-imidazo[1,5-a]pyrazin-7-ylmethyl]-4-(2-chloro-3-fluoro-phenyl)-2-thiazol-2-yl-1,4-dihydro-pyrimidine-5-carboxylic acid ethyl ester] |  |  | 30 |  | 4.4 |  |  | 337 (≈ 527 µM) |
| COC(=O)C1=C(CN2CCN3C(=O)N([C@H]4CCC[C@H]4C(=O)O)C[C@@H]3C2)NC(c2nccs2)=N[C@H]1c1ccc(F)cc1Cl [Example 51, (1R,2S)-2-[(8aS)-7-[[(4R)-4-(2-chloro-4-fluoro-phenyl)-5-methoxycarbonyl-2-thiazol-2-yl-1,4-dihydropyrimidin-6-yl]methyl]-3-oxo-5,6,8,8a-tetrahydro-1H-imidazo[1,5-a]pyrazin-2-yl]cyclopentanecarboxylic acid] |  |  | 31 |  | 2.0 |  |  | 589 (≈ 954 µM) |
| CCOC(=O)C1=C(CN2CCN3C(=O)N(C(C)(C)C(=O)O)C[C@@H]3C2)NC(c2nccs2)=N[C@H]1c1cccc(F)c1Cl [Example 32, (R)-6-[(S)-2-(1-Carboxy-1-methyl-ethyl)-3-oxo-hexahydro-imidazo[1,5-a]pyrazin-7-ylmethyl]-4-(2-chloro-3-fluoro-phenyl)-2-thiazol-2-yl-1,4-dihydro-pyrimidine-5-carboxylic acid ethyl ester] |  |  | 199 |  | 1.6 |  |  | > 701 |
| CCOC(=O)C1=C(CN2CCN3C(=O)N(CCOCC(=O)O)CC3C2)NC(c2nccs2)=N[C@H]1c1cccc(F)c1Cl (stereo partly drawn) [Example 67, 2-[2-[7-[[(4R)-4-(2-chloro-3-fluoro-phenyl)-5-ethoxycarbonyl-2-thiazol-2-yl-1,4-dihydropyrimidin-6-yl]methyl]-3-oxo-5,6,8,8a-tetrahydro-1H-imidazo[1,5-a]pyrazin-2-yl]ethoxy]acetic acid] |  |  | 438 |  | 4.7 |  |  | > 794 |
